Source: patent US11572350B1, “Benzothia(di)azepine compounds and their use as bile acid modulators” (Albireo AB, priority 2020, dated 2023)

Legend:
[1] = Bidirectional permeability assay (Caco-2 cells); format: in vitro ADME; conditions: human, FaSSIF donor buffer, 120 minutes at 37° C.; for Papp A→B at 120 min, 10 µM: Caco-2, pH 7.4, absorptive direction (A2B); for Papp B→A at 120 min, 10 µM: Caco-2, pH 7.4, secretory direction (B2A)
From the text: (§1) Bidirectional Permeability Assay (Caco-2 Cells)
(§2) HepaRG-Based Assay Protocol

human LBAT = biological target: T1, human LBAT (Homo sapiens, UniProt Q14973); assay: LBAT (h/m) assay: 3H-taurocholic acid uptake in human LBAT-overexpressing cells; format: cell-based; conditions: 0.3 μM 3H-taurocholic acid and 7.5 μM cold taurocholic acid, 20 minutes, read-out: hLBAT IC50
T1 construct: expressed in transfected cells; kept under Geneticin selection
T1 sequence (Q14973 1-349): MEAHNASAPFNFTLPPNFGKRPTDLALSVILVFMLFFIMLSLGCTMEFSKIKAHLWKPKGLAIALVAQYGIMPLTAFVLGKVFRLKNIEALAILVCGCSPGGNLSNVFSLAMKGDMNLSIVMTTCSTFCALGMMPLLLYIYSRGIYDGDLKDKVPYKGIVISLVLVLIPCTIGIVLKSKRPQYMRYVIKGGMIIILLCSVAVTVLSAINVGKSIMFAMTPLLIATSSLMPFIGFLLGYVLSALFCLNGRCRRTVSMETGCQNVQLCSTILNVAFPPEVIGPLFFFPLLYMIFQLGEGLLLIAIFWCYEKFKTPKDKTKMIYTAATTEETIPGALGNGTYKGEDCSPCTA
Method: LBAT (h/m) Assay Protocol
20,000 cells (Human or Mouse LBAT-overexpressing cells) were seeded in 96-wells plate (Corning CLS3809) in 100 μL MEM-alpha medium (Gibco 12571-063) supplemented with 10% FBS (Gibco 10438026) containing Geneticin (Gibco 10131-027) (1 mg/mL) and incubated at 37° C. in 5% CO2 for 24 hours. After incubation, media was decanted from the wells and cells were washed two times with 300 μL of basal MEM-alpha medium (FBS-free). After decanting basal MEM-alpha medium each time, plates were tapped against paper towel to ensure maximum removal of residual media. For human LBAT, incubation mix was prepared by adding test inhibitor dilutions (3-fold serial dilution in DMSO (Sigma D2650), 10 points) in MEM-alpha (without FBS) containing 0.3 μM 3H-taurocholic acid (ARC ART-1368) and 7.5 μM cold taurocholic acid (Sigma T4009) (maintaining 0.2% final DMSO concentration). For mouse LBAT, incubation mix was prepared by adding test inhibitor dilutions (3-fold serial dilution in DMSO, 10 points) in MEM-alpha (without FBS) containing 0.3 μM 3H-taurocholic acid and 25 μM cold taurocholic acid maintaining 0.2% final DMSO concentration). 50 μL of incubation mix containing test inhibitors was then added to the wells (in duplicate) and the plates were incubated for 20 minutes in a CO2 incubator at 37° C. After incubation, the reaction was stopped by keeping the plates on ice water mix for 2-3 minutes and then the incubation mix was aspirated completely from the wells. The wells were washed two times with 250 μL of chilled unlabelled 1 mM taurocholic acid dissolved in HEPES (Gibco 15630080)-buffered (10 mM) HBSS (Gibco 14175079) (pH 7.4). The plates were tapped against a paper towel after every wash to ensure maximum removal of blocking buffer.
100 μL of MicroScint-20 (PerkinElmer 6013621) was added to the wells and kept overnight at room temperature before reading the plates in TopCount NXT™ Microplate Scintillation and Luminescence Counter from PerkinElmer under 3H Test protocol (set at 120 seconds reading time per well, with normal plate orientation).
(§3) Preparation of Test Compound Dilutions
(§4) All test compounds were provided in powder form at room temperature. 10 mM DMSO stocks of the test compounds were prepared, aliquoted and stored at −20° C. From the 10 mM DMSO stock of the compounds, a 3-fold serial dilution in DMSO was prepared to get a total of 10 dilutions of the test compounds. 0.5 μL of this dilution in DMSO was added to 250 μL of FBS-free basal media containing 3H-taurocholic acid and cold taurocholic acid to prepare the incubation mixture.

human IBAT = biological target: T2, human IBAT (Homo sapiens, UniProt Q12908); assay: IBAT (h/m) assay: 3H-taurocholic acid uptake in human IBAT-overexpressing cells; format: cell-based; conditions: 0.25 μM 3H-taurocholic acid and 5 μM cold taurocholic acid, 20 minutes, highest test concentration 10 μM, read-out: hIBAT IC50
T2 construct: expressed in transfected cells; kept under Puromycin selection
T2 sequence (Q12908 1-348): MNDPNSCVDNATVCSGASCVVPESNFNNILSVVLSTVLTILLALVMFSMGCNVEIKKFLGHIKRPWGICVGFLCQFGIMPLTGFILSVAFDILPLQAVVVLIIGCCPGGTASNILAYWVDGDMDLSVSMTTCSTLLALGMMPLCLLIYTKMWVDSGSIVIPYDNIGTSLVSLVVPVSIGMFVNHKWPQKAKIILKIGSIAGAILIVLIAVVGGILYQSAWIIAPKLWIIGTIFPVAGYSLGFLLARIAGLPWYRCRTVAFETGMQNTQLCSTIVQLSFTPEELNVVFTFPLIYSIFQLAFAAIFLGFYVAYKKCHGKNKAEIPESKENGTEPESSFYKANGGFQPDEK
Method: IBAT (h/m) Assay Protocol
10,000 cells (Human or Mouse IBAT-overexpressing cells) were seeded in 96-wells plate (Corning CLS3809) in 200 μL MEM-alpha medium (Gibco 12571-063) supplemented with 10% FBS (Gibco 10438026) containing Puromycin (Gibco A1113803) (10 μg/mL) and incubated at 37° C. in 5% CO2 for 48 hours. After incubation, media was decanted from the wells and cells were washed two times with 300 μL of basal MEM-alpha medium (FBS-free). After decanting basal MEM-alpha medium each time, plates were tapped against paper towel to ensure maximum removal of residual media. Test inhibitor dilutions (highest test concentration being 10 μM, 3-fold serial dilution, 10 points) prepared in DMSO (Sigma D2650) were added in incubation mix (maintaining 0.2% final DMSO concentration) containing 0.25 μM 3H-taurocholic acid (ARC ART-1368) and 5 μM of cold taurocholic acid (Sigma T4009). 50 μL of incubation mix containing test inhibitors was then added to the wells (in duplicate) and the plates were incubated for 20 minutes in a CO2 incubator at 37° C. After incubation, the reaction was stopped by keeping the plates on ice water mix for 2-3 minutes and then the incubation mix was aspirated completely from the wells. The wells were washed two times with 250 μL of chilled unlabelled 1 mM taurocholic acid dissolved in HEPES (Gibco 15630080)-buffered (10 mM) HBSS (Gibco 14175079) (pH 7.4). The plates were tapped against a paper towel after every wash to ensure maximum removal of blocking buffer.
100 μL of MicroScint-20 (PerkinElmer 6013621) was added to the wells and kept overnight at room temperature before reading the plates in TopCount NXT™ Microplate Scintillation and Luminescence Counter from PerkinElmer under 3H Test protocol (set at 120 seconds reading time per well).
as §3, §4

OATP KO mice = assay: Effect of LBAT selective compounds on serum bile acid levels in OATP KO mice; format: in vivo; conditions: male OATP KO mice; for Effect on serum bile acid levels: oral dosing at the indicated doses, FIGS. 1 to 4, n=4
From the text: Effect of LBAT Selective Compounds on Serum Bile Acid Levels in OATP KO Mice
Male OATP KO mice (Oatp1a/1b cluster knockout mice, Taconic, USA) aged 8 to 9 weeks were used in the studies. After completion of quarantine and acclimatization period, animals were randomized based on body weight into experimental groups (n=4 mice in each). On the experimental day, a baseline blood sample was collected followed by oral dosing of vehicle (0.5% CMC, 0.1% Tween 80) or compound of Example 3, 6, 13 or 15 at the indicated doses. Blood samples were then collected at various time points after dose (indicated in each graph). Blood was allowed to clot, and serum was collected by centrifugation at 3000 g, 4° C. for 15 minutes and stored at −80° C. for further analysis. The total bile acid concentration in each serum sample was determined by using the CELL BIOLABS Total Bile Acids kit (STA631) according to manufacturer's instructions. Mean±SEM, n=4.

Caco-2 cells = assay: Bidirectional permeability assay (Caco-2 cells); format: in vitro ADME; conditions: absorptive direction (A2B); FaSSIF donor buffer; 120 minutes at 37° C.
From the text: as §1, §2

SMILES | Papp A→B at 120 min, 10 µM [1] [×10⁻⁶ cm/s] | Papp B→A at 120 min, 10 µM [1] [×10⁻⁶ cm/s] | IC50 (human LBAT) [nM] | IC50 (human IBAT) [nM] | Serum bile acids level (OATP KO mice; 30 mg/kg oral, within one hour after dosing, pre-dose/vehicle 1 to 5 μmol/L) | Effect on serum bile acid levels (OATP KO mice) | Permeability (Caco-2) Papp A2B (Caco-2 cells) [×10⁻⁶ cm/s]
CCCCC1CN(c2ccccc2)c2cc(SCC)c(O/C=C(\F)C(=O)O)cc2S(=O)(=O)C1 (racemic) [Example 13, (Z)-3-((3-butyl-7-(ethylthio)-1,1-dioxido-5-phenyl-2,3,4,5-tetrahydro-1,5-benzothiazepin-8-yl)oxy)-2-fluoroacrylic acid] | 1.8 | 6.9 | 2.8 | 4890 | about 100 μmol/L | increased serum bile acids in a dose-dependent manner | 
CCCCC1CN(c2ccc(F)cc2)c2cc(SC)c(O/C=C/C(=O)O)cc2S(=O)(=O)N1 (single isomer, unassigned) [Example 3, (E)-3-((3-butyl-5-(4-fluorophenyl)-7-(methylthio)-1,1-dioxido-2,3,4,5-tetrahydro-1,2,5-benzothiadiazepin-8-yl)oxy)acrylic acid] | 10.5 | 17.1 | 1.6 | 2020 |  | increased serum bile acid levels | 
CCCCC1CN(c2ccccc2)c2cc(SCC)c(O/C=C(\F)C(=O)O)cc2S(=O)(=O)C1 (single isomer, unassigned) [Example 15, (Z)-3-((3-butyl-7-(ethylthio)-1,1-dioxido-5-phenyl-2,3,4,5-tetrahydro-1,5-benzothiazepin-8-yl)oxy)-2-fluoroacrylic acid] |  | 5.3 | 1.2 | > 3330 |  | increased serum bile acid levels | 1.3
